In patent US20240425482A1, “PYRROLIDINE DERIVATIVES AS DDRS INHIBITORS” (CHIESI FARMACEUTICI S.P.A., priority 2021, published 2024) one finds Ki data, which are given here for 13 compounds.

The target in one assay is DDR1 (Homo sapiens (Human), UniProt Q08345). Kind of assay: DDR1 LanthaScreen Europium Kinase Binding assay. As to conditions: binding; 5 nM DDR1, 20 nM Kinase Tracer 178, 1 hour at rt; Ki from IC50 by Cheng-Prusoff; read-out: Ki DDR1. The method, then:
(§1) DDR1 and DDR2 binding assays were performed using Life Technologies LanthaScreen™ Europium Kinase Binding assay. The compounds were incubated with 5 nM DDR1 (Carna Biosciences) or 5 nM DDR2 (Life Technologies) for 1 hour at rt in white 384-well OptiPlate (PerkinElmer), containing 20 nM or 10 nM Kinase Tracer 178 respectively and 2 nM Europium labelled anti-GST antibody (Life Technologies) in assay buffer (50 mM HEPES pH 7.5, 10 mM MgCI2, 1 mM EGTA and 0.01% BRIJ35). The ratio of fluorescence emission 665 nm/615 nm after excitation at 340 nm was obtained using the Tecan Spark 20M plate reader. IC50 values were determined in GraphPad Prism 7.0 software, using 4 parameter model: log(inhibitor) vs. response. IC50 values were converted in Ki using the Cheng-Prusoff equation (Ki=IC50/(1+[Tracer]/Kd).
(§2) Compounds C1 and C2 were tested in the same binding assay described above.
Background: In TR-FRET formats the signal depends on donor and acceptor labels being close together.

A further assay concerns the target DDR2 (Homo sapiens (Human), UniProt Q16832). Kind of assay: DDR2 LanthaScreen Europium Kinase Binding assay. As to conditions: binding; 5 nM DDR2, 10 nM Kinase Tracer 178, 1 hour at rt; Ki from IC50 by Cheng-Prusoff; read-out: Ki DDR2. The method, then:
as §1, §2

Each structure is given as a SMILES string.

DDR2, sequence (Q16832 22-855): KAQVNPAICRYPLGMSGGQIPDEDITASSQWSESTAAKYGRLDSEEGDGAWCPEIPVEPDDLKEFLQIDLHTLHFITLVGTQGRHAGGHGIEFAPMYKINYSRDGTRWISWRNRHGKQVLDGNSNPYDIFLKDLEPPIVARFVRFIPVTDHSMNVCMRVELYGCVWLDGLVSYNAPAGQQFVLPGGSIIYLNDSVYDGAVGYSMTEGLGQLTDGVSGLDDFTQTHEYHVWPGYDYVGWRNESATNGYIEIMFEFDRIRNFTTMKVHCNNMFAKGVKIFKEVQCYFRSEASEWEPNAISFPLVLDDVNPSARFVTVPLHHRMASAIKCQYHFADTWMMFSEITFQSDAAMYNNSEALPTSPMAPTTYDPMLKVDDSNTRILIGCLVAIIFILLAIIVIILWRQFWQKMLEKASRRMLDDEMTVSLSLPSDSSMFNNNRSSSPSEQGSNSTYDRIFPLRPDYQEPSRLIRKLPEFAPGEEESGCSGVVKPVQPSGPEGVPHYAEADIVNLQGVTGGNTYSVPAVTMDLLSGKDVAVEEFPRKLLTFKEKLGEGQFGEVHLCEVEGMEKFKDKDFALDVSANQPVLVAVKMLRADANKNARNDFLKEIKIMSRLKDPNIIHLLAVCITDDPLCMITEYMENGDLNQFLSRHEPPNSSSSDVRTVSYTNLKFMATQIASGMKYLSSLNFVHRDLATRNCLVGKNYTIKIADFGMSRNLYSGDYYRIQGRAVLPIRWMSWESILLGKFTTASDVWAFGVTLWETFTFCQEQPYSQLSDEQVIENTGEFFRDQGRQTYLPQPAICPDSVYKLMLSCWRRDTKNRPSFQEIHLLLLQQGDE
DDR1, sequence (Q08345 19-913): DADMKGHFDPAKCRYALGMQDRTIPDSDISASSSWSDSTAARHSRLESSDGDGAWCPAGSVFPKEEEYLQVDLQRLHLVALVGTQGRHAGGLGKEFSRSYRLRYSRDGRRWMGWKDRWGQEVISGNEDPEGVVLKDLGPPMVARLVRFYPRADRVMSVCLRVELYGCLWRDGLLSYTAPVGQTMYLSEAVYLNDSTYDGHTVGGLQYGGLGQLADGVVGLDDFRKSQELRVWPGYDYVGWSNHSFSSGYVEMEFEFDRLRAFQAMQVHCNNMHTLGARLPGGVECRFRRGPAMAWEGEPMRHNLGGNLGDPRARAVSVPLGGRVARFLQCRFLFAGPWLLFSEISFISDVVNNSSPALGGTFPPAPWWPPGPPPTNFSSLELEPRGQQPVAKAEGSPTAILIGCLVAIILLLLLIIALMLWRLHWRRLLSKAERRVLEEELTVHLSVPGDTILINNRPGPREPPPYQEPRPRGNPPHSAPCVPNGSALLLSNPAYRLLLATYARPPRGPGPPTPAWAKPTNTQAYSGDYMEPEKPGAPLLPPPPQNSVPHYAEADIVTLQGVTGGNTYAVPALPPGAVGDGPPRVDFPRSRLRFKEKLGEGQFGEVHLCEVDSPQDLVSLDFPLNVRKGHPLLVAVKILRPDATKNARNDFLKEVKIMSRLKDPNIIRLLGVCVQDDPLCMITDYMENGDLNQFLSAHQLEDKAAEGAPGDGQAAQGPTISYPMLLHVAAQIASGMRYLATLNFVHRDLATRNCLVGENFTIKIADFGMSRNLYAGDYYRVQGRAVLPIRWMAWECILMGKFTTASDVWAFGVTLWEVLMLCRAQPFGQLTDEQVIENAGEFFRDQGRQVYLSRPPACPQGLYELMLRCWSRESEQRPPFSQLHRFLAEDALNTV

As usually defined, the Ki is a dissociation constant, usually derived from enzyme kinetics or from competition with a known ligand. With `COc1cncc(N2CCC(c3cc(C(=O)Nc4cccc(C(F)(F)F)c4)ccc3C)C2)c1` (centres unmarked) [Example 3, 3-(1-(5-methoxypyridin-3-yl)pyrrolidin-3-yl)-4-methyl-N-(3-(trifluoromethyl)phenyl)benzamide], the Ki at DDR1 and at DDR2 was less than 10 nM each time.
Regarding `Cc1ccc(C(=O)Nc2cccc(C(F)(F)F)c2)cc1C1CCN(c2cncc(C(N)=O)c2)C1` (centres unmarked) [Example 17, 5-(3-(2-methyl-5-((3-(trifluoromethyl)phenyl)carbamoyl)phenyl)pyrrolidin-1-yl)nicotinamide], the Ki was less than 10 nM on DDR1 and 10 to 25 nM on DDR2.
As to `Cc1ccc(C(=O)Nc2cccc(C(F)(F)F)c2)cc1C1CCN(c2cncc(NCCN(C)C)c2)C1` (centres unmarked) [Example 21, 3-(1-(5-((2-(dimethylamino)ethyl)amino)pyridin-3-yl)pyrrolidin-3-yl)-4-methyl-N-(3-(trifluoromethyl)phenyl)benzamide], the Ki on DDR1 is less than 10 nM; on DDR2, 25 to 60 nM.
On to `CC(=O)Nc1ncc(N2CC[C@@H](c3cc(C(=O)Nc4cccc(C(F)(F)F)c4)ccc3C)C2)cn1` [Example 51, (S)-3-(1-(2-acetamidopyrimidin-5-yl)pyrrolidin-3-yl)-4-methyl-N-(3-(trifluoromethyl)phenyl)benzamide], for which the results for the inhibition constant Ki at DDR1 and at DDR2 were less than 10 nM and 10 to 25 nM, respectively.
For the compound `Cc1ccc(C(=O)Nc2cccc(C(F)(F)F)c2)cc1[C@@H]1CCN(c2cncnc2)C1` [Example 20, (S)-4-methyl-3-(1-(pyrimidin-5-yl)pyrrolidin-3-yl)-N-(3-(trifluoromethyl)phenyl)benzamide], the inhibition constant Ki on DDR1 and on DDR2 was less than 10 nM throughout.
In the case of `Cc1ccc(C(=O)Nc2cccc(C(F)(F)F)c2)cc1[C@@H]1CCN(c2cccnc2)C1` [Example 16, (S)-4-methyl-3-(1-(pyridin-3-yl)pyrrolidin-3-yl)-N-(3-(trifluoromethyl)phenyl)benzamide], the Ki at DDR1 and on DDR2 was less than 10 nM each time.
Consider `Cc1ccc(C(=O)Nc2cccc(C(F)(F)F)c2)cc1C1CCN(c2cncc(N3CCOCC3)c2)C1` (centres unmarked) [Example 8, 4-methyl-3-(1-(5-morpholinopyridin-3-yl)pyrrolidin-3-yl)-N-(3-(trifluoromethyl)phenyl)benzamide], for which the values for the Ki on DDR1 and at DDR2 were less than 10 nM and 25 to 60 nM, respectively.
For `Cc1ccc(C(=O)Nc2cccc(C(F)(F)F)c2)cc1[C@@H]1CCN(c2cncc(N3CCC(F)(F)CC3)c2)C1` [Example 31, (S)-3-(1-(5-(4,4-difluoropiperidin-1-yl)pyridin-3-yl)pyrrolidin-3-yl)-4-methyl-N-(3-(trifluoromethyl)phenyl)benzamide], the inhibitory constant (Ki) at DDR1 is less than 10 nM; on DDR2, more than 60 nM.
In the case of `CNC(=O)c1cncc(N2CC[C@H](c3cc(C(=O)Nc4cccc(C(F)(F)F)c4)ccc3C)C2)c1` [Example 28, (R)-N-methyl-5-(3-(2-methyl-5-((3-(trifluoromethyl)phenyl)carbamoyl)phenyl)pyrrolidin-1-yl)nicotinamide], the inhibition constant Ki was less than 10 nM at DDR1 and 10 to 25 nM at DDR2.
Take `COCCNC(=O)c1cncc(N2CCC(c3cc(C(=O)Nc4cccc(C(F)(F)F)c4)ccc3C)C2)c1` (centres unmarked) [Example 9, N-(2-methoxyethyl)-5-(3-(2-methyl-5-((3-(trifluoromethyl)phenyl)carbamoyl)phenyl)pyrrolidin-1-yl)nicotinamide]: the inhibitory constant (Ki) at DDR1 is less than 10 nM; at DDR2, 10 to 25 nM.
Take `CO[C@@H]1CCCN(c2cncc(N3CC[C@@H](c4cc(C(=O)Nc5cccc(C(F)(F)F)c5)ccc4C)C3)c2)C1` [Example 36, 3-((S)-1-(5-((R)-3-methoxypiperidin-1-yl)pyridin-3-yl)pyrrolidin-3-yl)-4-methyl-N-(3-(trifluoromethyl)phenyl)benzamide]: the inhibitory constant (Ki) was less than 10 nM at DDR1 and 25 to 60 nM on DDR2.
With `CNC(=O)c1cncc(N2CC[C@@H](c3cc(C(=O)Nc4cccc(C(F)(F)F)c4)ccc3C)C2)c1` [Example 26, (S)-N-methyl-5-(3-(2-methyl-5-((3-(trifluoromethyl)phenyl)carbamoyl)phenyl)pyrrolidin-1-yl)nicotinamide], the Ki on DDR1 and on DDR2 was less than 10 nM each time.
For the compound `Cc1ccc(C(=O)Nc2cccc(C(F)(F)F)c2)cc1C1CCN(c2cccnc2)C1` (centres unmarked) [Example 2, 4-methyl-3-(1-(pyridin-3-yl)pyrrolidin-3-yl)-N-(3-(trifluoromethyl)phenyl)benzamide], the Ki at DDR1 and on DDR2 was less than 10 nM each time.
